Assay results published in patent US5602125A, “Thienodiazepine derivatives as cholecystokinin and gastrin antagonists” (Merck, Sharp & Dohme, Ltd., priority 1992, dated 1997).

Assays:
[1] = molecular target: T1, CCK-A (Rattus norvegicus, UniProt P30551); assay: displacement of 125I-CCK from rat pancreas (CCK-A); details: 50% displacement of specific 125I-CCK, read-out: CCK receptor binding IC50, 125I-CCK Pancreas
T1 construct: ^125 I-CCK from rat pancreas (CCK-A); from tissue; host or cells: rat pancreas
T1 sequence (P30551 1-444): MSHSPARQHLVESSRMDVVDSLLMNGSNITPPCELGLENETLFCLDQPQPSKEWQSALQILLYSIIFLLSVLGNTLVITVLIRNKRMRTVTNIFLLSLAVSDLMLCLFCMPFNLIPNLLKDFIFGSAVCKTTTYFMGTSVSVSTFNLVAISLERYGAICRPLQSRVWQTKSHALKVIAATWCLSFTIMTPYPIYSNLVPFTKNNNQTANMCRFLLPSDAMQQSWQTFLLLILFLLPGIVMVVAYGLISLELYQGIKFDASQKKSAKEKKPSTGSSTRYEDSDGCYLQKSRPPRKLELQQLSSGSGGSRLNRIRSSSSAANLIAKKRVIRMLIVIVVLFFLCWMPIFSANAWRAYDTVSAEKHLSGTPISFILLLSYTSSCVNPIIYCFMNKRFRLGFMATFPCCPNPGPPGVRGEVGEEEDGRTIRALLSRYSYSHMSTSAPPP
Procedure: (§1) The CCK-A and CCK-B antagonising activity of the compounds described herein was evaluated using the assays described in published European patent application no. 0514133. The method essentially involves determining the concentration of the test compound required to displace 50% of the specific ^125 I-CCK from rat pancreas (CCK-A) or guinea pig brain (CCK-B). The data in Table 1 were obtained for the compound of Example 1.

[2] = molecular target: T2, CCK-B (Cavia porcellus, UniProt H0VZC5); assay: displacement of 125I-CCK from guinea pig brain (CCK-B); assay type: binding
T2 construct: guinea pig brain (CCK-B); from tissue; host or cells: guinea pig brain
Procedure: as §1

T2 sequence (H0VZC5 entry or part of it): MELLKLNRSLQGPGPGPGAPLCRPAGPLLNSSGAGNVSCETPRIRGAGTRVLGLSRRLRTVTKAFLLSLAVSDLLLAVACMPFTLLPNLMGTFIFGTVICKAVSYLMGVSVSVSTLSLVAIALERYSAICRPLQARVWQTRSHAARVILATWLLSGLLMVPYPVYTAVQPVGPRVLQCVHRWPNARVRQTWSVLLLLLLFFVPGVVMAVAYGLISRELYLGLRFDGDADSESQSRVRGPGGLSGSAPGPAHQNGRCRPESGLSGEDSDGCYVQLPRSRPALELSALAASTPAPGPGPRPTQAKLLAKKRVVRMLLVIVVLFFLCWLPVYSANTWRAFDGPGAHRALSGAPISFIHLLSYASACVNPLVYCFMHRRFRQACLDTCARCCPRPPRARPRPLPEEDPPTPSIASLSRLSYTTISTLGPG

Cc1cccc(NC(=O)NC2N=C(C3CCCCC3)c3ccsc3N(C)C2=O)c1 (racemic) [Example 1, N-[3(R,S)-5-cyclohexyl-2,3-dihydro-1-methyl-2-oxo-1H-1,4-thienodiazepine-3-yl]-N'-(3-methylphenyl) urea]
IC50 [1]: 0.0067 µM
IC50 [2]: 0.046 µM
